Data: ChEMBL document CHEMBL3351728, “3-alkoxy-pyrrolo[1,2-b]pyrazolines as selective androgen receptor modulators with ideal physicochemical properties for transdermal administration” (J Med Chem, 2014)
≈ marks a conversion by molar mass, not a printed value. Calls of active or inactive are those of the source. The rule behind the calls is not given here.

Legend:
[1] = Skin drug retention by silicone and isopropyl myristate (70:30) containing artificial membranes based skin PAMPA method
[2] = target: T1, Androgen receptor (Homo sapiens) (UniProt P10275); test: Agonist activity at human androgen receptor expressed in mouse C2C12 cells by androgen-specific response element-driven luciferase reporter gene assay relative to DHT; type: cell-based
T1 sequence (whole entry): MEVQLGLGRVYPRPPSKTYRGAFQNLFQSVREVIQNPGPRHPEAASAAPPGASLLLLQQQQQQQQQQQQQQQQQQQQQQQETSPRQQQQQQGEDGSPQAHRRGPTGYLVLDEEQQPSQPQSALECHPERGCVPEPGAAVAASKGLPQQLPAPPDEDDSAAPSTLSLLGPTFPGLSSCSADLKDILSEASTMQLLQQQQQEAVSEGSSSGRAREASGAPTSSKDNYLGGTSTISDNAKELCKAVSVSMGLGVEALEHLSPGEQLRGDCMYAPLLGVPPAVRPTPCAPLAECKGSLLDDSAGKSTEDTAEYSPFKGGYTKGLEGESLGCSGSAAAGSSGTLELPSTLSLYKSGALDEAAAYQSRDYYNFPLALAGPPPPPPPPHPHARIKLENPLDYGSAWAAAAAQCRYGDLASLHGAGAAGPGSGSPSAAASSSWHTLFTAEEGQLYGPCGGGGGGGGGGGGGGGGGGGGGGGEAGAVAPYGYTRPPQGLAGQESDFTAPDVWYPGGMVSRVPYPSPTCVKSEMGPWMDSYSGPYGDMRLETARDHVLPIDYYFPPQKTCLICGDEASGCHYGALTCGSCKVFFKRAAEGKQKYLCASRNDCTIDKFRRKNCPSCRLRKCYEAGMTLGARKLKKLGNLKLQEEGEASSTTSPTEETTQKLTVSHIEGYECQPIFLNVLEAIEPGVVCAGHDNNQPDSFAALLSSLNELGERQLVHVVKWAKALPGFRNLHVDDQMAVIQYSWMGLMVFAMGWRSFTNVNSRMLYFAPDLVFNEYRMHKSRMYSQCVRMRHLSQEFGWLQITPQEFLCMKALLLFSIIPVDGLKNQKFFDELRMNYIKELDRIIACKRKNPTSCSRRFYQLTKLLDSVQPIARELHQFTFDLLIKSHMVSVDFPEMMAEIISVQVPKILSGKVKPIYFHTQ

Androgen receptor [3] = target: T2, Androgen receptor (Homo sapiens, UniProt P10275)
T2 sequence (P10275 whole entry): T1 sequence (whole entry)

[4] = Skin permeability by silicone and isopropyl myristate (70:30) containing artificial membranes based skin PAMPA method; type: ADME
[5] = Lipophilicity, logP of the compound; type: physicochemical; conditions: octanol/water
Zone of skin = test: Skin permeability in human cadaver skin in Franz diffusion cell system; type: ADME
[6] = Thermodynamic solubility of the compound at pH 7.4; type: physicochemical; conditions: buffer, read-out: Therm_solubility
Rattus norvegicus [7] = test: AUC (0 to 48 hrs) in Wistar rat at 0.5 mg/kg, sc; type: ADME, organism-based, Plasma; design: time < 48 hr, dose 0.5 mg/kg, route subcutaneous; conditions: in vivo
[8] = Tmax in Wistar rat at 0.5 mg/kg, sc; type: ADME, organism-based; design: dose 0.5 mg/kg, route subcutaneous; conditions: in vivo
[9] = Cmax in Wistar rat at 0.5 mg/kg, sc; type: ADME, organism-based; design: dose 0.5 mg/kg, route subcutaneous; conditions: in vivo
Progesterone receptor = target: T3, Progesterone receptor (Homo sapiens, UniProt P06401); test: Binding affinity to progesterone receptor (unknown origin) incubated for 4 hrs
T3 sequence (P06401 whole entry): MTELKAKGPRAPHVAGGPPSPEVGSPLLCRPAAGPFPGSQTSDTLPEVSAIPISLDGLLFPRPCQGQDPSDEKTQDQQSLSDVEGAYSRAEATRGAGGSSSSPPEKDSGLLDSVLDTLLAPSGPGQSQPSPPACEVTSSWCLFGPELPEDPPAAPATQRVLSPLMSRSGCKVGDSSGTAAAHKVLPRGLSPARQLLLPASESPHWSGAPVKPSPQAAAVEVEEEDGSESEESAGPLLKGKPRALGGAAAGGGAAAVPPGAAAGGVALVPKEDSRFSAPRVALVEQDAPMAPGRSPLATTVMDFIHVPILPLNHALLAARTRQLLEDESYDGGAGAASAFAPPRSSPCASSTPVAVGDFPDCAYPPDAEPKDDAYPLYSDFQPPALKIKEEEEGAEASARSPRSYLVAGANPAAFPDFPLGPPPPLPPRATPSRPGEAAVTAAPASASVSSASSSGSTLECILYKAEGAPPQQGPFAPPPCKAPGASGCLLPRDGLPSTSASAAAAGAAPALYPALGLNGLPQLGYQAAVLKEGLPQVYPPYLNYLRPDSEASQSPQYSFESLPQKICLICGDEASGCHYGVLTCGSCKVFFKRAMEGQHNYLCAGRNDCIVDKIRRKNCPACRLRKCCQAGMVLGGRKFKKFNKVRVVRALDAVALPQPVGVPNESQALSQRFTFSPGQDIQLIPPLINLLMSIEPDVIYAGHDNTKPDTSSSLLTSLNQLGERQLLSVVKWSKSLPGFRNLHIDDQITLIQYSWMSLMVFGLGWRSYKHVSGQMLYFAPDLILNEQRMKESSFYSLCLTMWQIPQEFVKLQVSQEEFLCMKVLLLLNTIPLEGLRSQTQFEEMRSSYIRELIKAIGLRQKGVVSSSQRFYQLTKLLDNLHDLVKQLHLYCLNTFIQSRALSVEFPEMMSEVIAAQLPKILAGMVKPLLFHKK

Rattus norvegicus [10] = test: Androgenic activity in orchidectomized rat assessed as stimulation of prostate weight treated subcutaneously once daily for 14 days by Hershberger assay; type: organism-based; conditions: Prostate gland, sc, 336 h
Rattus norvegicus [11] = test: Anabolic activity in orchidectomized rat assessed as stimulation of bulbocavernosus/levator ani muscle weight treated at 0.3 mg/kg, sc once daily for 14 days by Hershberger assay; type: functional, organism-based; design: dose 0.3 mg/kg
Rattus norvegicus [12] = test: Bioavailability in Wistar rat at 0.5 mg/kg, sc; type: ADME, organism-based; conditions: in vivo
Androgen receptor [13] = target: T2, Androgen receptor; test: Displacement of [3H]DHT from androgen receptor in human MDA-MB-435 cells after 30 mins; type: cell-based
Rattus norvegicus [14] = test: Anabolic activity in orchidectomized rat assessed as stimulation of bulbocavernosus/levator ani muscle weight treated subcutaneously once daily for 14 days by Hershberger assay; type: functional
Glucocorticoid receptor = target: T4, Glucocorticoid receptor (Homo sapiens, UniProt P04150); test: Binding affinity to glucocorticoid receptor (unknown origin) incubated for 4 hrs
T4 sequence (P04150 whole entry): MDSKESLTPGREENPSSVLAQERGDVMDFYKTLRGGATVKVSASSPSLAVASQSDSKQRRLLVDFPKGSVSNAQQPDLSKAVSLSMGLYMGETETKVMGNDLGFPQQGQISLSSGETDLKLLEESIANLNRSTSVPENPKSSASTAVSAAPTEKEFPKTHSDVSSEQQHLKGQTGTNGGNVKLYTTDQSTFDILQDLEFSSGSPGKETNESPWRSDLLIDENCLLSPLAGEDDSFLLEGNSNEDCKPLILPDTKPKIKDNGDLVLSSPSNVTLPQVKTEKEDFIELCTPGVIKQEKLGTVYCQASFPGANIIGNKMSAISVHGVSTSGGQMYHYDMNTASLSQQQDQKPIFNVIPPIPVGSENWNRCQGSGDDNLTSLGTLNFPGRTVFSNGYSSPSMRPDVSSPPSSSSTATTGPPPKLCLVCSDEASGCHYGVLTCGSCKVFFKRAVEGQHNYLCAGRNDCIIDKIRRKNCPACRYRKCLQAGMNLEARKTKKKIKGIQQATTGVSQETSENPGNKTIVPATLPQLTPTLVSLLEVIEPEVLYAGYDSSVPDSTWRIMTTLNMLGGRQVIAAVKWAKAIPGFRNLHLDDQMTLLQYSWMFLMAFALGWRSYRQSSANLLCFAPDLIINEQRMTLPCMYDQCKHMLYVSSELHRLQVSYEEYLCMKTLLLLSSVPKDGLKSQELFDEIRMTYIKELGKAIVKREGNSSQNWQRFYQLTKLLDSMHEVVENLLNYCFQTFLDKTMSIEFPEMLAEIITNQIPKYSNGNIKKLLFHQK

Estrogen receptor = target: T5, Estrogen receptor (Homo sapiens, UniProt P03372); test: Binding affinity to estrogen receptor (unknown origin) incubated for 4 hrs
T5 sequence (P03372 whole entry): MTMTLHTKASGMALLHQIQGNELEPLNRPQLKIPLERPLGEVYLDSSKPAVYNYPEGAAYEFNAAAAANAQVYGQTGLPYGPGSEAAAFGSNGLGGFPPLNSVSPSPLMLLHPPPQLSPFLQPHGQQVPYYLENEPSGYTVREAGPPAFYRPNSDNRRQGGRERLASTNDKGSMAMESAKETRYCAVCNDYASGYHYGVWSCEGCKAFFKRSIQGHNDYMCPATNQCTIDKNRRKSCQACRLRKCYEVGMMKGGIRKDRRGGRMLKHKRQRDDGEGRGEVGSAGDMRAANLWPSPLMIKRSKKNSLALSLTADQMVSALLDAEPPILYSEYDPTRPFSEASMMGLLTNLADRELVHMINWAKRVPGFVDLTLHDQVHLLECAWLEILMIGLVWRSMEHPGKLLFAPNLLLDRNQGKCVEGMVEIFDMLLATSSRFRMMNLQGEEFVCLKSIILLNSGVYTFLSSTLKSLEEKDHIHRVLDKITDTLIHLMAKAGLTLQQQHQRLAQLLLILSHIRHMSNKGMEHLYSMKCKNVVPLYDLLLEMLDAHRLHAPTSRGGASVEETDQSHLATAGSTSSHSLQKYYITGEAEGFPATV

[15] = AUC (0 to infinity) in Wistar rat at 1 mg/kg, iv; type: ADME, organism-based; design: dose 1 mg/kg, route intravenous, time infinity; conditions: plasma
[16] = Volume of distribution in Wistar rat at 1 mg/kg, iv; type: ADME, organism-based; design: dose 1 mg/kg, route intravenous; conditions: in vivo
Rattus norvegicus [17] = test: Androgenic activity in orchidectomized rat assessed as stimulation of prostate weight treated at 0.3 mg/kg, sc once daily for 14 days by Hershberger assay; type: organism-based, Prostate gland; design: dose 0.3 mg/kg, route subcutaneous; conditions: in vivo, 336 h
[18] = Terminal half life in Wistar rat at 1 mg/kg, iv; type: ADME, organism-based; design: dose 1 mg/kg, route intravenous; conditions: in vivo, read-out: beta t1/2 (converted)

| SMILES | Drug uptake [1] | Emax [2] [%] | EC50 (Androgen receptor [3]) [nM] | permeability [4] | logP [5] | Jss (Zone of skin) [ug/cm2.hr] | solubility thermodynamic [6] [µg/mL] | other results |
| --- | --- | --- | --- | --- | --- | --- | --- | --- |
| CO[C@@H]1C(c2ccc(C#N)c(Cl)c2C)=NN2CC(F)(F)C[C@@H]12 | Active | 100 | 0.3 | permeable | 3.2 | 0.06 | 10 (≈ 30.7 µM) |  |
| CO[C@@H]1C(c2ccc(C#N)c(Cl)c2C)=NN2CC(=O)C[C@@H]12 |  | 93 | 26 |  |  |  |  |  |
| CO[C@@H]1C(c2ccc(C#N)c(Cl)c2C)=NN2CC[C@@H](O)[C@@H]12 |  | 86.7 | 0.4 |  | 1.9 | 0.2 | 250 (≈ 818 µM) |  |
| Cc1c(C2=NN3CC[C@H](O)[C@H]3[C@@H]2OC(C)C)ccc(C#N)c1Cl |  | 102 | 4.5 |  |  |  |  |  |
| CO[C@H]1CCN2N=C(c3ccc(C#N)c(Cl)c3C)[C@@H](OC)[C@H]12 |  | 82 |  |  |  |  |  |  |
| CO[C@@H]1C(c2ccc(C#N)c(Cl)c2C)=NN2CC[C@H](F)[C@@H]12 |  | 93.5 | 1.5 |  |  |  |  |  |
| CO[C@@H]1C(c2ccc(C#N)c(Cl)c2C)=NN2CC[C@H](O)[C@@H]12 | inactive | 97 |  | permeable | 2 | 2 | 1300 (≈ 4250 µM) | AUC (Rattus norvegicus [7]): 670 ng·h/mL; Tmax [8]: 1.5 h; Cmax [9]: 79 ng/mL; IC50 (Progesterone receptor): 700 nM; ED50 (Rattus norvegicus [10]): 2.73 mg/kg; Activity (Rattus norvegicus [11]): Active; F (Rattus norvegicus [12]): 75%; IC50 (Androgen receptor [13]): 0.7 nM; Activity (Rattus norvegicus [14]): Dose-dependent effect; ED50 (Rattus norvegicus [14]; sc, 336 h): 0.07 mg/kg; IC50 (Glucocorticoid receptor): > 1000 nM; IC50 (Estrogen receptor): > 1000 nM; AUC(0-inf) [15]: 708 ng·h/mL; Vd [16]: 4.6 L/kg; Activity (Rattus norvegicus [17]): Non-toxic; half-life [18]: 5.7 h |
| CO[C@@H]1C(c2ccc(C#N)c(Cl)c2C)=NN2CC[C@@H](F)[C@@H]12 | inactive | 98 | 0.16 | permeable | 2.7 | 1.2 | 10 (≈ 32.5 µM) |  |
